Results on 25 compounds are retold here after the Kinase Knowledgebase extract (Sharma et al. 2016).

For one experiment, the target named is PIK3CD (Human) (UniProt O00329). As to the kind of experiment: Assessment of PIK3CD Kinase Activity.
The target of the next experiment is PIK3CG (human) (UniProt P48736). Description: Assessment of PIK3CG Kinase Activity.
The target of a further experiment is PIK3CA (human) (UniProt P42336). As to the kind of experiment: Assessment of PIK3CA Kinase Activity.
PIK3CA (human), sequence (P42336 whole entry, looked up): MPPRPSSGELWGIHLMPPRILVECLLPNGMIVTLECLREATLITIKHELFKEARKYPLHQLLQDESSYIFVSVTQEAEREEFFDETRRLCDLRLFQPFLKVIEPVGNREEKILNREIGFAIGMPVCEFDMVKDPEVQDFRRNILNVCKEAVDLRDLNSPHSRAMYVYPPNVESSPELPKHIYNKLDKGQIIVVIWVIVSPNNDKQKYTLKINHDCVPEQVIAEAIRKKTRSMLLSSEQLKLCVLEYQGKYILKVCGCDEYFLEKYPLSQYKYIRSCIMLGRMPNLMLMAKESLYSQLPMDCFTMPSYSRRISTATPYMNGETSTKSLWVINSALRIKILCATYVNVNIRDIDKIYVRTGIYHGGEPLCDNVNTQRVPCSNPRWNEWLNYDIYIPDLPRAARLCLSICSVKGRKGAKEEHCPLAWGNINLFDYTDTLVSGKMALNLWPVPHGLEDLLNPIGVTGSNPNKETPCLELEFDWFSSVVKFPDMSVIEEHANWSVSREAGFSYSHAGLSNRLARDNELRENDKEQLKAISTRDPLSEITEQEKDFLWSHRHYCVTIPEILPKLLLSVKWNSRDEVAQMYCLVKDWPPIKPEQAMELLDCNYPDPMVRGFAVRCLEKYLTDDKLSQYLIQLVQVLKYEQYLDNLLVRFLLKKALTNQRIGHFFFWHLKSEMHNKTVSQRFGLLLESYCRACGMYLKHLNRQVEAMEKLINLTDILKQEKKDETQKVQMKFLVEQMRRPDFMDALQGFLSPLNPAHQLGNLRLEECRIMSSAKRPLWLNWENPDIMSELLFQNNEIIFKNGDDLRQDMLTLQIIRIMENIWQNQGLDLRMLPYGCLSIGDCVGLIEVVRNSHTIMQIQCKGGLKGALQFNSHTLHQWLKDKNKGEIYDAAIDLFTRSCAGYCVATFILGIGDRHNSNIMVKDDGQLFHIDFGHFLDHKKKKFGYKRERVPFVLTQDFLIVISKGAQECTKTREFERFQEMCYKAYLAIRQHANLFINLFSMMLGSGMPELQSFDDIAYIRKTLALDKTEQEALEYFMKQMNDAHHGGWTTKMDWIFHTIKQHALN
In another experiment the target is PIK3CB (Human) (UniProt P42338). As to the kind of experiment: Assessment of PIK3CB Kinase Activity.
PIK3CB (Human), sequence (P42338 whole entry, looked up): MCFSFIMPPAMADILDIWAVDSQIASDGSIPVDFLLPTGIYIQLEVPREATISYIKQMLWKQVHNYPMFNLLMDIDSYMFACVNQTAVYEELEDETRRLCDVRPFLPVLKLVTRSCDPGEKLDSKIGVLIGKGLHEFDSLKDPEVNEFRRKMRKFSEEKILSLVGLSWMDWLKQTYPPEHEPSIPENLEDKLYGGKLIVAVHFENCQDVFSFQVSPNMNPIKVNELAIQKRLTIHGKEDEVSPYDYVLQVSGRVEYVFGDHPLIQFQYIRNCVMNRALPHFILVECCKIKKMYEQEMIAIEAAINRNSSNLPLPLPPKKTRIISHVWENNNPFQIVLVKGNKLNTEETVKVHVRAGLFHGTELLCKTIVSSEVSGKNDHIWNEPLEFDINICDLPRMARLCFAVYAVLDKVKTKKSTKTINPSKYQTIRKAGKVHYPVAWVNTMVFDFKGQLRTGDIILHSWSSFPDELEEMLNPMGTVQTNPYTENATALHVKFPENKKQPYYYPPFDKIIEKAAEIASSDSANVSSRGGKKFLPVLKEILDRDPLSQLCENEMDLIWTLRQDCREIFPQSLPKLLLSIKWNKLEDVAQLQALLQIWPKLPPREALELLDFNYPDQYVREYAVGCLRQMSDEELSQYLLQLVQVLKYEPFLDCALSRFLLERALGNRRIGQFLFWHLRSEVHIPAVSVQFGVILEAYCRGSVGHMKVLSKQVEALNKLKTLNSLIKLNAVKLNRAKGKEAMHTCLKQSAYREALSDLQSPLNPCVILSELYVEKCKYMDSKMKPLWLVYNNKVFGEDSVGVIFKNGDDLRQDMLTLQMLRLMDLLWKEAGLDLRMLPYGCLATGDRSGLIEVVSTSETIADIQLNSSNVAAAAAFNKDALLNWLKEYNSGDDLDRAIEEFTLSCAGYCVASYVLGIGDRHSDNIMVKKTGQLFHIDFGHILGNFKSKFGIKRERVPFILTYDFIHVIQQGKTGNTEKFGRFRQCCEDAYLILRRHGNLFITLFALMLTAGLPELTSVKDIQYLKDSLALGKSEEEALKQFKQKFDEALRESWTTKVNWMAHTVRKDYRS

PIK3CG (human), sequence (P48736 whole entry, looked up): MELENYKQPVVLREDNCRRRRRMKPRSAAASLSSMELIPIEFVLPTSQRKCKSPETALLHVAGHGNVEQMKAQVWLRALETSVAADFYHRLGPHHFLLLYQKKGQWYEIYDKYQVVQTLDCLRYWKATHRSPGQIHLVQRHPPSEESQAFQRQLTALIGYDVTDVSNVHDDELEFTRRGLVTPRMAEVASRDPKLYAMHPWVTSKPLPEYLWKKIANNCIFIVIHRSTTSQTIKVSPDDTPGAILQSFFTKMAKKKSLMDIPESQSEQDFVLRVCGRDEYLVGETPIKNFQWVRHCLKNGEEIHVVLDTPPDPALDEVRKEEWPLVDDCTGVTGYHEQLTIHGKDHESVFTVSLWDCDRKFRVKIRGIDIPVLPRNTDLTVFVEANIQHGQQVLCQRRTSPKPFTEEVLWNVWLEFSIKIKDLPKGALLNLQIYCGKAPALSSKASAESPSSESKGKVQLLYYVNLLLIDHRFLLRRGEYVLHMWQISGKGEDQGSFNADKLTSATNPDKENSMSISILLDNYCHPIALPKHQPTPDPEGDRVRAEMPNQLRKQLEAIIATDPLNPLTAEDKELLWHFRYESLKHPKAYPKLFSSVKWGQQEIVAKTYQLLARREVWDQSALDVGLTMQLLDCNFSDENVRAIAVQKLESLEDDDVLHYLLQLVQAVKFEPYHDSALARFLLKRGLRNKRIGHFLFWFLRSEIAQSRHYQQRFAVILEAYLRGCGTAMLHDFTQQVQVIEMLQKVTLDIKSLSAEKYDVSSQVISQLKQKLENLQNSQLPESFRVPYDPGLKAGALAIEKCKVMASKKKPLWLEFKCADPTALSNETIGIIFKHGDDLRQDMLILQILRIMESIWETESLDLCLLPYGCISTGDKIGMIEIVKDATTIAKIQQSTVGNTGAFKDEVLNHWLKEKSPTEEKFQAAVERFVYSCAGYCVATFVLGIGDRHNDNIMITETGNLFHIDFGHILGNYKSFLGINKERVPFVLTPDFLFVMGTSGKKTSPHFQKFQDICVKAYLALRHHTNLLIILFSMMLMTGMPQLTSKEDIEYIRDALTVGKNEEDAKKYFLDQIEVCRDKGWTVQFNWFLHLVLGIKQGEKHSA
PIK3CD (Human), sequence (O00329 whole entry, looked up): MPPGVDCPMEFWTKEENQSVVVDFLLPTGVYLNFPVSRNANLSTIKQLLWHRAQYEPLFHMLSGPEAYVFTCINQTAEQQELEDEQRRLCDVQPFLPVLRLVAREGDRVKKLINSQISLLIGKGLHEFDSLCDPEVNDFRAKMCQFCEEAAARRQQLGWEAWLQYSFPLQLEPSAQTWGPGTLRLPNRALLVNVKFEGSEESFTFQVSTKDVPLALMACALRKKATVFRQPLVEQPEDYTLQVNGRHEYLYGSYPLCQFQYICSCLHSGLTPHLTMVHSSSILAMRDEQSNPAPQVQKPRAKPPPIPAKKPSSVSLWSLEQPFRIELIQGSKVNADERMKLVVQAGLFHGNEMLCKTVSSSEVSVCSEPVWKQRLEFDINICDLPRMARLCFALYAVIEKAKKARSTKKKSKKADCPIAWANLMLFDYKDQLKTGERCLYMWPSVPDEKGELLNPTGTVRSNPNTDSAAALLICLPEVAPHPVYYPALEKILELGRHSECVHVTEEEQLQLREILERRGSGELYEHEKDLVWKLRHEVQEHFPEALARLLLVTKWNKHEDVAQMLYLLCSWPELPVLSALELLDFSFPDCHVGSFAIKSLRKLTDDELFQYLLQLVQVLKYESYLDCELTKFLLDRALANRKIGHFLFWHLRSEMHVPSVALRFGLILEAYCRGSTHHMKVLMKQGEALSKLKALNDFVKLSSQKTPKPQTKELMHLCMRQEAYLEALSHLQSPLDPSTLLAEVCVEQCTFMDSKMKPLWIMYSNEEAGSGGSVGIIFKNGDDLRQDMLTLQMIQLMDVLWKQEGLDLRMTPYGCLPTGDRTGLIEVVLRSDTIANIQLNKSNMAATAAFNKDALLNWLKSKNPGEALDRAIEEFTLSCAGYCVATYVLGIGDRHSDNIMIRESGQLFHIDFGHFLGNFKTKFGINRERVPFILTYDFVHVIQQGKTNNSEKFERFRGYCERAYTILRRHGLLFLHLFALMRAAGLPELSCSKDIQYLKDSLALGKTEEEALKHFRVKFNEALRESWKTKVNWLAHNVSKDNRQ

As to `Cc1cccc2cc([C@H](C)Nc3nc(N)nc4cccnc34)n(-c3cccc(F)c3)c(=O)c12`, the IC50 (as a rule, the concentration needed to halve the response being measured) at PIK3CD (Human) was less than 100 nM; at PIK3CG (human), less than 100 nM; at PIK3CA (human) it was 100 to 1000 nM.
On to `COc1cncc(-c2cccc3cc([C@H](C)Nc4nc(N)nc5cccnc45)n(-c4ccccc4)c(=O)c23)c1`, for which the IC50 on PIK3CD (Human) is less than 100 nM; at PIK3CG (human), less than 100 nM; against PIK3CA (human), 100 to 1000 nM.
Turning to `C[C@H](Nc1ncnc2cccnc12)c1cc2scc(C(F)(F)F)c2c(=O)n1-c1ccccc1`, the values for the half-maximal inhibitory concentration (IC50) on PIK3CD (Human), at PIK3CA (human) and on PIK3CB (Human) were less than 100 nM, greater than 10000 nM and greater than 10000 nM, respectively.
Turning to `C[C@H](Nc1ccnc2ccnn12)c1cc2cccc(Cl)c2c(=O)n1CCN1CCCC1`, the concentration for half-maximal inhibition (IC50) against PIK3CG (human) and against PIK3CA (human) was greater than 10000 nM in each case.
Consider `C[C@H](Nc1c(C#N)cnc2cccnc12)c1cc2cccc(-c3cnn(C)c3)c2c(=O)n1-c1ccccc1`, for which the IC50 on PIK3CD (Human), on PIK3CA (human) and against PIK3CB (Human) was greater than 10000 nM in each case.
For `Cc1cc(-c2cccc3nc([C@H](C)Nc4nc(N)nc5cccnc45)n(-c4ccccc4)c(=O)c23)ccn1`, the results for the half-inhibitory concentration (IC50) against PIK3CD (Human), at PIK3CG (human) and against PIK3CA (human) were less than 100 nM, less than 100 nM and 100 to 1000 nM, respectively.
For `C[C@H](Nc1ccnc2ccnn12)c1cc2cccc(Cl)c2c(=O)n1C1CC1`, the IC50 was less than 100 nM against PIK3CD (Human), 100 to 1000 nM against PIK3CG (human) and 100 to 1000 nM at PIK3CB (Human).
Consider `C[C@H](Nc1nc(N)ncc1C(F)(F)F)c1cc2cccc(C(F)(F)F)c2c(=O)n1-c1cccc(F)c1`, for which the values for the IC50 at PIK3CD (Human), against PIK3CG (human) and at PIK3CA (human) were less than 100 nM, less than 100 nM and greater than 10000 nM, respectively.
Take `C[C@H](Nc1ccnc2ccnn12)c1cc2cccc(C(F)(F)F)c2c(=O)n1-c1cccc(F)c1`: the values for the IC50 at PIK3CD (Human), at PIK3CG (human) and against PIK3CA (human) were less than 100 nM, less than 100 nM and greater than 10000 nM, respectively.
As to `C[C@H](Nc1ncnc2scnc12)c1cc2cccc(C(F)(F)F)c2c(=O)n1-c1cccc(F)c1`, the values for the IC50 against PIK3CD (Human), against PIK3CG (human) and on PIK3CB (Human) were less than 100 nM, less than 100 nM and 100 to 1000 nM, respectively.
With `C[C@H](Nc1cc(Cl)nn2ccnc12)c1cc2cccc(-c3cnn(C)c3)c2c(=O)n1C1CC1`, the IC50 at PIK3CA (human) and against PIK3CB (Human) was greater than 10000 nM in each case.
Turning to `COc1nc(N[C@@H](C)c2cc3cccc(C(F)(F)F)c3c(=O)n2-c2cccc(F)c2)c2ncccc2n1`, the IC50 against PIK3CD (Human), against PIK3CA (human) and at PIK3CB (Human) was greater than 10000 nM each time.
On to `Cc1cn2nccc(N[C@@H](C)c3cc4cccc(-c5cnn(C)c5)c4c(=O)n3-c3ccccc3)c2n1`, for which the IC50 against PIK3CA (human) and against PIK3CB (Human) was greater than 10000 nM each time.
Regarding `C[C@H](Nc1nc(N)nc2cccnc12)c1cc2cccc(-c3cnn(C)c3)c2c(=O)n1C1CC1`, the half-maximal inhibitory concentration (IC50) against PIK3CD (Human) was less than 100 nM; against PIK3CG (human), less than 100 nM; against PIK3CA (human) it was 100 to 1000 nM.
In the case of `C[C@H](Nc1ncnc2cccnc12)c1cc2cccc(-c3ccc(N)nc3)c2c(=O)n1-c1ccccc1`, the IC50 against PIK3CD (Human) is less than 100 nM; on PIK3CG (human), less than 100 nM; against PIK3CB (Human), greater than 10000 nM.
Regarding `C[C@H](Nc1nc(N)ncc1C(F)(F)F)c1cc2cccc(C(F)(F)F)c2c(=O)n1-c1ccccc1`, the IC50 at PIK3CD (Human) was less than 100 nM; against PIK3CG (human), less than 100 nM; on PIK3CA (human), greater than 10000 nM.
With `C[C@H](Nc1cc(N)nc2ccnn12)c1cc2cccc(Cl)c2c(=O)n1-c1ccccc1`, the values for the IC50 against PIK3CD (Human), on PIK3CG (human) and at PIK3CA (human) were less than 100 nM, less than 100 nM and greater than 10000 nM, respectively.
In the case of `C[C@H](Nc1ncnc(N)c1C#N)c1cc2cccc(C(F)(F)F)c2c(=O)n1-c1cccc(F)c1`, the values for the IC50 against PIK3CD (Human), against PIK3CG (human) and on PIK3CB (Human) were less than 100 nM, less than 100 nM and 100 to 1000 nM, respectively.
Regarding `C[C@H](Nc1ncnc2cccnc12)c1cc2cccc(-c3cnn(C)c3)c2c(=O)n1C`, the IC50 at PIK3CA (human) and against PIK3CB (Human) was greater than 10000 nM each time.
`Cc1ncc(-c2cccc3cc([C@H](C)Nc4nc(N)nc5cccnc45)n(-c4ccccc4)c(=O)c23)s1`: the IC50 against PIK3CD (Human) is less than 100 nM; at PIK3CG (human), less than 100 nM; against PIK3CA (human), 100 to 1000 nM.
With `COc1ccc(-c2cccc3cc([C@H](C)Nc4ncnc5cccnc45)n(-c4ccccc4)c(=O)c23)cn1`, the IC50 against PIK3CD (Human) is less than 100 nM; against PIK3CG (human) it was less than 100 nM; at PIK3CB (Human), greater than 10000 nM.
In the case of `C[C@H](Nc1ncnc2[nH]cnc12)c1cc2cccc(C(F)(F)F)c2c(=O)n1-c1ccccc1`, the values for the IC50 against PIK3CD (Human), at PIK3CG (human) and on PIK3CB (Human) were less than 100 nM, less than 100 nM and 100 to 1000 nM, respectively.
On to `C[C@H](Nc1ncnc2ccnn12)c1cc2cccc(Cl)c2c(=O)n1-c1cccc(F)c1`, for which the results for the IC50 against PIK3CD (Human), on PIK3CG (human) and against PIK3CA (human) were less than 100 nM, 100 to 1000 nM and greater than 10000 nM, respectively.
Consider `C[C@H](Nc1c(C#N)cnc2cccnc12)c1cc2cccc(Cl)c2c(=O)n1-c1ccccc1`, for which the half-inhibitory concentration (IC50) against PIK3CD (Human), against PIK3CA (human) and against PIK3CB (Human) was greater than 10000 nM in each case.
Take `Cc1ccnc2cc(C(C)Nc3ncnc4cccnc34)n(-c3ccccc3)c(=O)c12` (stereo unspecified): the IC50 was less than 100 nM against PIK3CD (Human), 100 to 1000 nM against PIK3CG (human) and greater than 10000 nM against PIK3CA (human).
